In US12492210B2, “Tricyclic compounds and their use” (HUTCHISON MEDIPHARMA LIMITED, priority 2019, dated 2025) one finds IC50 data, which are given here for 47 molecules.

Broadly, the IC50 is the concentration at which inhibition is half-maximal.

For assay [1], the target named is T1, MAPK1(ERK2) enzyme (Homo sapiens, UniProt P28482).
T1 construct: purchased Invitrogen PV3313
As to the kind of experiment: Z-Lyte Kinase Assay of ERK2. Format: biochemical. To be noted: read-out: Example 18 IC50. The method in brief:
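FRET-based Z-LYTE assay using ERK2 kinase with Ser/Thr3 peptide; compound tested at 0.00046–1 μM final in 2% DMSO. Kinase reaction ran 1 h at 25-30° C, followed by 1 h development. The coumarin/fluorescein emission ratio (445/520 nm) gave % phosphorylation, and IC50 was fitted from inhibition relative to uninhibited control.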

In assay [2] the test system is p-RSK (Thr359) in colo205 cells. As to the kind of experiment: p-RSK (Thr359) Acumen Assay in Colo205. Type of assay: cell-based. To be noted: Homo sapiens, COLO 205, 1 hour compound incubation, read-out: Example 19 IC50. The method in brief: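 Colo205 cells (4000/well, seeded overnight in 10% FBS) were exposed 1 hour at 37° C to compound added from a 3–0.001 μM dilution series in 5% DMSO. Cells were then fixed, permeabilised and immunostained for p-RSK Thr359, with PI counterstain. Acumen cytometry gave the percentage of positive cells, normalised to untreated wells and 3 uM GDC0994 wells, for the IC50 fit.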

Molecules are shown by their SMILES. Bounds are passed on as bounds.

T1 sequence (P28482 whole entry): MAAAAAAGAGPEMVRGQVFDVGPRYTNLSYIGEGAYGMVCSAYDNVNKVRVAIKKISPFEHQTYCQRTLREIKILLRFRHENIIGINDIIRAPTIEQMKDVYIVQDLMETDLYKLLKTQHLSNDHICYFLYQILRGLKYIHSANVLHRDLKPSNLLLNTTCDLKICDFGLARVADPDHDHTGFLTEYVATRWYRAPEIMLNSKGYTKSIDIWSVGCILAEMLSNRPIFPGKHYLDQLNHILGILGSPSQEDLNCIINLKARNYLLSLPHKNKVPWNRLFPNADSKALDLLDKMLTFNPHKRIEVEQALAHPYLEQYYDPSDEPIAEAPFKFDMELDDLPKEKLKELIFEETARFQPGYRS

In the case of `Cn1nccc1Nc1nccc(-c2cc3n(c2)C[C@H](CF)n2c-3nnc2C(F)(F)c2ccccc2Cl)n1` [Compound 142], the values for the IC50 in assay [1] and in assay [2] were 5 to 10 nM and at most 100 nM, respectively.

Take `C[C@H]1Cn2cc(-c3nc(Nc4ccnn4C)ncc3F)cc2-c2nnc(C(F)(F)c3ccccc3Cl)n21` [Compound 143]: the IC50 in assay [1] is above 10 nM; in assay [2] it was at most 100 nM.

With `Cn1nccc1Nc1ncnc(-c2cc3n(c2)C[C@H](CF)n2c-3nnc2C(F)(F)c2ccccc2Cl)n1` [Compound 144], the IC50 in assay [1] was at most 5 nM; in assay [2], at most 100 nM.

On to `Cn1nccc1Nc1cc(-c2cc3n(c2)C[C@H](CF)n2c-3nnc2C(F)(F)c2ccccc2F)c(F)cn1` [Compound 145], for which the IC50 in assay [1] is at most 5 nM; in assay [2], at most 100 nM.

`Cn1nccc1Nc1cc(-c2cc3n(c2)CC(F)(F)Cn2c-3nnc2C(C)(C)C(F)(F)F)c(Cl)cn1` [Compound 146]: the IC50 in assay [1] is at most 5 nM; in assay [2], at most 100 nM.

Turning to `CCc1cnc(Nc2ccnn2C)cc1-c1cc2n(c1)C[C@H](OC)Cn1c-2nnc1C1(C(F)(F)F)CCC1` [Compound 147], the values for the IC50 in assay [1] and in assay [2] were at most 5 nM and above 100 nM, respectively.

As to `Cn1nccc1Nc1ncc(F)c(-c2cc3n(c2)C[C@H](CF)n2c-3nnc2C(F)(F)c2ccccc2F)n1` [Compound 148], the results for the IC50 in assay [1] and in assay [2] were 5 to 10 nM and at most 100 nM, respectively.

As to `Cn1nccc1Nc1nccc(-c2cc3n(c2)C[C@H](C(F)F)n2c-3nnc2C(F)(F)c2ccccc2F)n1` [Compound 149], the IC50 in assay [1] is at most 5 nM; in assay [2], at most 100 nM.

In the case of `Cc1cnc(Nc2c3c(nn2C)CCC3)nc1-c1cc2n(c1)C[C@H](CF)n1c(Cc3ccccc3F)nnc1-2` [Compound 150], the figures for the IC50 in assay [1] and in assay [2] were at most 5 nM and at most 100 nM, respectively.

As for `Cc1cnc(Nc2ccnn2C)cc1-c1cc2n(c1)C[C@H](CF)n1c-2nnc1C(F)(F)n1nccc1Cl` [Compound 151], the IC50 in assay [1] is at most 5 nM; in assay [2], at most 100 nM.

Take `Cc1cnc(Nc2ccnn2C)cc1-c1cc2n(c1)C[C@H](CF)n1c-2nnc1C(F)(F)n1ccc(Cl)n1` [Compound 152]: the values for the IC50 in assay [1] and in assay [2] were at most 5 nM and at most 100 nM, respectively.

As for `Cc1cnc(Nc2ccnn2C)cc1-c1cc2n(c1)C[C@H](CF)n1c-2nnc1C(F)(F)n1cc(Cl)cn1` [Compound 153], the IC50 was at most 5 nM in assay [1] and at most 100 nM in assay [2].

Consider `Cn1nccc1Nc1cc(-c2cc3n(c2)C[C@H](CF)n2c-3nnc2C(F)(F)c2ccnn2C)c(Cl)cn1` [Compound 154], for which the figures for the IC50 in assay [1] and in assay [2] were at most 5 nM and at most 100 nM, respectively.

In the case of `CO[C@H]1Cn2cc(-c3cc(Nc4ccnn4C)ncc3Cl)cc2-c2nnc(C3(C(C)(F)F)CCC3)n2C1` [Compound 155], the IC50 in assay [1] was 5 to 10 nM; in assay [2], at most 100 nM.

Consider `Cc1cnc(Nc2ccnn2C)nc1-c1cc2n(c1)C[C@H](CF)n1c-2nnc1C(F)(F)n1cc(Cl)cn1` [Compound 156], for which the IC50 in assay [1] was at most 5 nM; in assay [2], at most 100 nM.

For the molecule `C[C@H]1Cn2cc(-c3cc(Nc4ccnn4C)ncc3Cl)cc2-c2nnc(C(F)(F)n3cc(Cl)cn3)n21` [Compound 157], the IC50 was 5 to 10 nM in assay [1] and at most 100 nM in assay [2].

Regarding `Cc1nonc1C(F)(F)c1nnc2n1[C@@H](CF)Cn1cc(-c3cc(Nc4ccnn4C)ncc3Cl)cc1-2` [Compound 158], the results for the IC50 in assay [1] and in assay [2] were 5 to 10 nM and at most 100 nM, respectively.

`Cn1nccc1Nc1cc(-c2cc3n(c2)CC(C)(C)Cn2c-3nnc2C2(C(F)(F)F)CCC2)c(Cl)cn1` [Compound 159]: the IC50 in assay [1] was 5 to 10 nM; in assay [2] it was at most 100 nM.

Consider `C[C@H]1CCn2cc(-c3cc(Nc4ccnn4C)ncc3Cl)cc2-c2nnc(C3(CC(F)(F)F)CCC3)n21` [Compound 160], for which the IC50 in assay [1] is at most 5 nM; in assay [2], at most 100 nM.

As to `Cn1nccc1Nc1cc(-c2cc3n(c2)C[C@H](CF)n2c-3nnc2C(F)(F)c2nccs2)c(Cl)cn1` [Compound 161], the values for the IC50 in assay [1] and in assay [2] were at most 5 nM and at most 100 nM, respectively.

Regarding `Cn1nccc1Nc1cc(-c2cc3n(c2)C[C@H](F)Cn2c-3nnc2C(F)(F)n2cc(F)cn2)c(Cl)cn1` [Compound 162], the IC50 in assay [1] was 5 to 10 nM; in assay [2], at most 100 nM.

For `Cn1nccc1Nc1cc(-c2cc3n(c2)C[C@H](CF)n2c-3nnc2C(F)(F)n2cc(F)cn2)c(Cl)cn1` [Compound 163], the results for the IC50 in assay [1] and in assay [2] were at most 5 nM and at most 100 nM, respectively.

`Cn1nccc1Nc1cc(-c2cc3n(c2)C[C@H](CF)n2c-3nnc2C(F)(F)n2cc(Cl)cn2)c(F)cn1` [Compound 164]: the IC50 in assay [1] was at most 5 nM; in assay [2] it was at most 100 nM.

With `CO[C@H]1Cn2cc(-c3cc(Nc4ccnn4C)ncc3Cl)cc2-c2nnc(C3(C(F)(F)F)CCC3)n2C1` [Compound 165], the IC50 in assay [1] is 5 to 10 nM; in assay [2], at most 100 nM.

As for `Cn1nccc1Nc1ncc(F)c(-c2cc3n(c2)C[C@H](CF)n2c-3nnc2C(F)(F)n2cc(Cl)cn2)n1` [Compound 166], the results for the IC50 in assay [1] and in assay [2] were at most 5 nM and at most 100 nM, respectively.

As for `COc1ccccc1C(F)(F)c1nnc2n1[C@@H](CF)Cn1cc(-c3nc(Nc4ccnn4C)ncc3C)cc1-2` [Compound 167], the figures for the IC50 in assay [1] and in assay [2] were at most 5 nM and at most 100 nM, respectively.

In the case of `Cc1cnc(Nc2ccnn2C)cc1-c1cc2n(c1)CC1(Cn3c-2nnc3C(F)(F)C(F)F)CC(F)(F)C1` [Compound 168], the IC50 in assay [1] is 5 to 10 nM; in assay [2], above 100 nM.

Turning to `Cc1cnc(Nc2ccnn2C)cc1-c1cc2n(c1)CC(F)(F)Cn1c-2nnc1C1(C(F)F)CC(F)(F)C1` [Compound 169], the IC50 was at most 5 nM in assay [1] and at most 100 nM in assay [2].

Take `Cc1cnc(Nc2ccnn2C)cc1-c1cc2n(c1)C[C@H](CF)n1c-2nnc1C(F)(F)Oc1ccccc1F` [Compound 170]: the 50% inhibitory concentration (IC50) is above 10 nM in assay [1] and above 100 nM in assay [2].

With `Cn1nccc1Nc1cc(-c2cc3n(c2)CC(F)(F)Cn2c-3nnc2C2(C(F)(F)F)CCC2)c(Cl)cn1` [Compound 171], the IC50 in assay [1] was above 10 nM; in assay [2], at most 100 nM.

As for `Cc1cnc(Nc2ccnn2C)cc1-c1cc2n(c1)C[C@H](CF)n1c-2nnc1C(F)(F)c1ccccc1Cl` [Compound 172], the results for the IC50 in assay [1] and in assay [2] were 5 to 10 nM and at most 100 nM, respectively.

Take `Cc1cnc(Nc2ncnn2C)cc1-c1cc2n(c1)C[C@H](CF)n1c-2nnc1C(F)(F)c1ccccc1Cl` [Compound 173]: the IC50 was 5 to 10 nM in assay [1] and above 100 nM in assay [2].

For the molecule `Cc1cnc(Nc2ccnn2C)cc1-c1cc2n(c1)C[C@H](CF)n1c-2nnc1C(F)(F)c1ncccc1Cl` [Compound 174], the IC50 in assay [1] is at most 5 nM; in assay [2] it was at most 100 nM.

`Cc1cccnc1C(F)(F)c1nnc2n1[C@@H](CF)Cn1cc(-c3cc(Nc4ccnn4C)ncc3Cl)cc1-2` [Compound 175]: the IC50 in assay [1] is at most 5 nM; in assay [2], above 100 nM.

As for `Cc1cnc(Nc2ccnn2C)nc1-c1cc2n(c1)C[C@H](CF)n1c-2nnc1C(F)(F)c1ccccc1Cl` [Compound 176], the IC50 is 5 to 10 nM in assay [1] and at most 100 nM in assay [2].

Consider `Cc1ncccc1C(F)(F)c1nnc2n1[C@@H](CF)Cn1cc(-c3cc(Nc4ccnn4C)ncc3Cl)cc1-2` [Compound 177], for which the IC50 is above 10 nM in assay [1] and at most 100 nM in assay [2].

With `C[C@H]1Cn2cc(-c3cc(Nc4ccnn4C)ncc3Cl)cc2-c2nnc(C(F)(F)c3ccccc3Cl)n21` [Compound 178], the half-inhibitory concentration (IC50) in assay [1] was above 10 nM; in assay [2] it was at most 100 nM.

With `Cc1cnc(Nc2ccnn2C)cc1-c1cc2n(c1)C[C@H](C(F)F)n1c-2nnc1C(F)(F)c1ccccc1F` [Compound 179], the IC50 is above 10 nM in assay [1] and at most 100 nM in assay [2].

As to `Cc1cnc(Nc2ccnn2C)cc1-c1cc2n(c1)C[C@H](CF)n1c-2nnc1C(F)(F)c1cccc(F)c1F` [Compound 180], the IC50 in assay [1] is above 10 nM; in assay [2] it was at most 100 nM.

Take `Cc1cnc(Nc2ccnn2C)cc1-c1cc2n(c1)C[C@H](CF)n1c-2nnc1C(F)(F)c1ccc(F)c(F)c1` [Compound 181]: the results for the IC50 in assay [1] and in assay [2] were 5 to 10 nM and above 100 nM, respectively.

`Cc1cnc(Nc2ccnn2C)cc1-c1cc2n(c1)C[C@H](CF)n1c-2nnc1C(F)(F)c1cc(F)cc(F)c1` [Compound 182]: the figures for the IC50 in assay [1] and in assay [2] were 5 to 10 nM and above 100 nM, respectively.

In the case of `Cc1cnc(Nc2ccnn2C)cc1-c1cc2n(c1)C[C@H](CF)n1c-2nnc1C(F)(F)c1cc(F)ccc1F` [Compound 183], the values for the IC50 in assay [1] and in assay [2] were at most 5 nM and at most 100 nM, respectively.

With `Cc1cnc(Nc2ccnn2C)cc1-c1cc2n(c1)C[C@H](CF)n1c-2nnc1C(F)(F)c1ccc(F)cc1F` [Compound 184], the figures for the IC50 in assay [1] and in assay [2] were 5 to 10 nM and at most 100 nM, respectively.

Turning to `Cc1cnc(Nc2ccnn2C)cc1-c1cc2n(c1)C[C@H](CF)n1c-2nnc1C(F)(F)c1c(F)cccc1F` [Compound 185], the IC50 was above 10 nM in assay [1] and at most 100 nM in assay [2].

For the molecule `Cc1cnc(Nc2ccnn2C)nc1-c1cc2n(c1)C[C@H](C(F)F)n1c-2nnc1C(F)(F)c1ccccc1F` [Compound 186], the IC50 in assay [1] was 5 to 10 nM; in assay [2], at most 100 nM.

`Cc1cnc(Nc2ccnn2C(F)F)nc1-c1cc2n(c1)C[C@H](C)n1c-2nnc1C(F)(F)c1ccccc1F` [Compound 187]: the IC50 in assay [1] was above 10 nM; in assay [2], at most 100 nM.

As to `Cc1cnc(Nc2ccnn2C)nc1-c1cc2n(c1)C[C@H](CF)n1c-2nnc1C(F)(F)c1ccc(F)cc1F` [Compound 188], the IC50 in assay [1] was 5 to 10 nM; in assay [2], at most 100 nM.
